Data published in patent US20070117770A1, “Human ribosomal DNA (rDNA) and ribosomal RNA (rRNA) nucleic acids and uses thereof” (Cylene Pharmaceuticals, Inc., priority 2005, published 2007).

What was measured:
[1] = system: mixed-parallel quadruplex structure; details: cited from earlier work
PKCβI(h) = PKCβI(h) (Homo sapiens, UniProt P05771); assay: Protein kinase inhibition assay; format: biochemical; details: read-out: percent residual activity of PKCβI(h)
Procedure: (§1) Certain compounds were tested for activity in protein kinase inhibition assays. All substrates were dissolved and diluted to working stocks in de-ionized water, apart from histone H1 (10× working stock in 20 mM MOPS pH 7.0), PDKtide (10× working stock in 50 mM Tris pH 7.0) ATF2 (which is typically stored at a 20× working stock in 50 mM Tris pH 7.5, 150 mM NaCl, 0.1 mM EGTA, 0.03% Brij-35, 50% glycerol, 1 mM benzamidine, 0.2 mM PMSF and 0.1% R-mercaptoethanol), KKLNRTLSFAEPG (SEQ ID NO:203) and RRRLSFAEPG (SEQ ID NO:204) (50 mM HEPES pH 7.4) and GGEEEEYFELVKKKK (SEQ ID NO:205) (20 mM MOPS pH 7.0). All kinases were pre-diluted to a 10× working concentration prior to addition into the assay. The composition of the dilution buffer for each kinase is detailed below.
In a final reaction volume of […], PKCβI (h) (5-10 mU) is incubated with 20 mM HEPES pH 7.4, 0.03% Triton X-100, 0.1 mM CaCl2, 0.1 mg/ml phosphatidylserine, 10 μg/ml diacylglycerol, 0.1 mg/ml histone H1, 10 mM MgAcetate and [gamma-33P-ATP] (specific activity approx. 500 cpm/pmol, concentration as required). The reaction is initiated by the addition of the MgATP mix. After incubation for 40 minutes at room temperature, the reaction is stopped by the addition of 5 μl of a 3% phosphoric acid solution. […]

[2] = system: fibrillarin in A549 cells; assay: Cell fibrillarin localization (immunofluorescence); format: cell-based; details: protocol as for nucleolin
Procedure: An assay was conducted to determine the effect of ribosomal nucleic acid interacting compounds on cell nucleolin location. In these studies, A549 cells were plated in borosilicate chamber slides. The cells were treated with 10 uM compound A-1 the next day for two hours, washed with phosphate buffered saline, fixed for 10 minutes in 4% paraformaldehyde, permeabilized for 5 minutes in a 1:1 ethanol:acetone mix, incubated with a 1:100 dilution of an anti-nucleolin monoclonal antibody (catalog no. RDI-NUCLEOLabm; Research Diagnostics, Inc.) in 5% donkey serum, followed by incubation with a 1:100 diluted TRITC-labeled secondary anti-mouse antibody and observed under a fluorescence microscope (e.g., Olympus) in the TRITC channel at 600× magnification. […] Accordingly, nucleolin was redistributed from the nucleolus to the nucleoplasm in cells treated with a compound tested in the assay.
Another assay was conducted to determine the effect of ribosomal nucleic acid interacting compounds on cell fibrillarin location. These studies were conducted using a protocol similar to that described in the preceding paragraph, except an antibody that specifically bound to fibrillarin (catalog no. ab5821; Novus Biologicals, Inc.) was utilized.

cells = assay: Cell cycle progression (propidium iodide, flow cytometry); format: cell-based; details: various concentrations, varying amounts of time
Procedure: (§2) In assays for determining cell cycle progression effects, cells were harvested and single cell suspensions were prepared in buffer (e.g. PBS +2% FBS; PBS+0.1% BSA). Cells were washed twice and resuspend at 1-2×10^6 cells/ml. One ml cells was aliquotted in a 15 ml polypropylene, V-bottomed tube and 3 ml cold absolute ethanol was added. Cells were fixed for at least one hour at 4° C. Fixed cells were washed twice in PBS and one ml of propidium iodide staining solution (3.8 mM sodium citrate, 50 ug/ml propidium iodide in PBS) was added to each cell pellet and mixed well. Fifty microliters of an RNase A stock solution ([…] RNase A boiled for 5 minutes and aliquoted and stored frozen at −20° C.) was added and the resulting mixture was incubated for 3 hours at 4° C. Samples were stored at 4° C. until analyzed by flow cytometry.

[3] = system: cellular DNA or RNA in A549 cells; assay: Cellular target study, RNase A or DNase I treatment of compound-treated cells; format: cell-based; details: 2 uM
Procedure: To determine the cellular target of rRNA-interacting compounds, a study was conducted to ascertain whether the compounds could select for cellular DNA or RNA. In these studies A549 cells were plated in borosilicate chamber slides. The cells were treated with 2 uM compound A-1 the next day for one hour or two hours, washed with PBS, fixed for 10 min in 4% paraformaldehyde, permeabilized for 5 min in 1:1 ethanol:acetone mix, treated with 2.5 ug/mL of RNase A or 340 Kunitz units/mL of DNase I and observed under a fluorescence microscope (Olympus) in the Ex360 nm/Em548 nm channel at 600× magnification. […] Accordingly, a compound tested in the assay interacted with RNA preferentially over DNA in cells.

FGFR2(h) = FGFR2(h) (Homo sapiens, UniProt P21802); assay: Protein kinase inhibition assay; format: biochemical; details: read-out: percent residual activity of FGFR2(h)
Procedure: as §1
In a final reaction volume of 25 μl, FGFR2 (h) (5-10 mU) is incubated with 8 mM MOPS pH 7.0, 0.2 mM EDTA, 2.5 mM MnCl2, 0.1 mg/ml poly(Glu, Tyr) 4:1, 10 mM MgAcetate and [gamma-33P-ATP] (specific activity approx. 500 cpm/pmol, concentration as required). The reaction is initiated by the addition of the MgATP mix. After incubation for 40 minutes at room temperature, the reaction is stopped by the addition of 5 μl of a 3% phosphoric acid solution. 10 μl of the reaction is then spotted onto a Filtermat A and washed three times for 5 minutes in 75 mM phosphoric acid and once in methanol prior to drying and scintillation counting.

[4] = system: DAOY medulloblastoma cells (p53−); assay: Cell cycle progression (propidium iodide, flow cytometry); format: cell-based
Procedure: as §2

[5] = system: HCT-116 colon carcinoma cells (p53+); assay: as above; format: cell-based; details: HCT-116 (p53+)
Procedure: as §2

MiaPaCa pancreatic cells = assay: as above; format: cell-based
Procedure: as §2

Chain of FGFR2(h) (P21802 22-821): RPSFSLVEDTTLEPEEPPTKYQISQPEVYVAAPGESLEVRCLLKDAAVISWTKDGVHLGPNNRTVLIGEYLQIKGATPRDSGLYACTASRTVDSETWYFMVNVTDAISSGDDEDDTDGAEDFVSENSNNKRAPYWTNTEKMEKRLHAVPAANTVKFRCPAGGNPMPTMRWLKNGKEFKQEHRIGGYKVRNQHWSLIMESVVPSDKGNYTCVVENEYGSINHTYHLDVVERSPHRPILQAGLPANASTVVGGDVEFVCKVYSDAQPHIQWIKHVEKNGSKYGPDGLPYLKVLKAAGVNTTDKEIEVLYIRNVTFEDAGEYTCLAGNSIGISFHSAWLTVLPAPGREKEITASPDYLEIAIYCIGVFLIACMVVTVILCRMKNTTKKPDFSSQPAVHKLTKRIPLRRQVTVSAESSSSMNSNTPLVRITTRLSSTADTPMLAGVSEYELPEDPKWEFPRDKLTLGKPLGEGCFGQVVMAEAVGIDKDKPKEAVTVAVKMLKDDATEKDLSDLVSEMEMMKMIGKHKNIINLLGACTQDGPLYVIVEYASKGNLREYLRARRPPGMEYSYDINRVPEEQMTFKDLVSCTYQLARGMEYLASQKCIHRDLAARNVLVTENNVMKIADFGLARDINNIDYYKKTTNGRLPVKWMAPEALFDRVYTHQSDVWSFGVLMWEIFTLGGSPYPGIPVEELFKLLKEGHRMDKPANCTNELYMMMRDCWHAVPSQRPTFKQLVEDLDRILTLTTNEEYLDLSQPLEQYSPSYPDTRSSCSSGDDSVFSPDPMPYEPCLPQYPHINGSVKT
Chain of PKCβI(h) (P05771 whole entry): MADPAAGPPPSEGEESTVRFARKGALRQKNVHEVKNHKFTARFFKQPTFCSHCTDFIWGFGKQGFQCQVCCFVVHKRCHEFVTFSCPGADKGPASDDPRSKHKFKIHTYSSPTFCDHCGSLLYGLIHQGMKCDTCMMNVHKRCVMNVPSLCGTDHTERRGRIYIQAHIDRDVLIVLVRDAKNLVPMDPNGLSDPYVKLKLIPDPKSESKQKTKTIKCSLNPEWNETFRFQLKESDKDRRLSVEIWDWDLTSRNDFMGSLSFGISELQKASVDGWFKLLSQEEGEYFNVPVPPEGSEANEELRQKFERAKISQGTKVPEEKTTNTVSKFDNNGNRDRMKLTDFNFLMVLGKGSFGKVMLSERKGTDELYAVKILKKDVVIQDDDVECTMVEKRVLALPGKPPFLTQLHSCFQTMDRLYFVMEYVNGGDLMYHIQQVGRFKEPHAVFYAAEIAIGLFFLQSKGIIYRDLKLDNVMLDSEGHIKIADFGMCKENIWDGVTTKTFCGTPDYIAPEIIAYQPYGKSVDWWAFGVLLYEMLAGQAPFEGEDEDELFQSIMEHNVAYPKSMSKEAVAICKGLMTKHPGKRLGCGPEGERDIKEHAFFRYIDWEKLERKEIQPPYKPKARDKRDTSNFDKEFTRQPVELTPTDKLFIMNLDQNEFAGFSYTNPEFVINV

remaining activity at 2.5 µM (PKCβI(h)) [%]	remaining activity at 2.5 µM (FGFR2(h)) [%]	SMILES	preferred quadruplex structure in competition assays [1]	fibrillarin localization in treated cells [2]	effect on the cell cycle (cells)	effect of RNase treatment on nucleolar staining by the drug ([3]; 2.5 ug/mL RNase A)	effect of DNase I treatment on compound localization ([3]; 340 Kunitz units/mL DNase I)	cell cycle arrest [4]	cell cycle arrest [5]	cell cycle arrest (MiaPaCa pancreatic cells)
94	76	CN1CCCC1CCNC(=O)c1cn2c3c(c(N4CCC(c5cnccn5)C4)c(F)cc3c1=O)Oc1cc3ccccc3cc1-2 (stereo not drawn) [Compound A-1]	interact preferentially with a mixed-parallel quadruplex structure	caused redistribution of fibrillarin	little or no affect on the cell cycle	significantly reduced nucleolar staining	minimal effect			
97	89	CC(=O)N1CCN(c2ccc3c(=O)c(C(=O)NCCN4CCCC4)c4n(C)c5ccccc5n4c3n2)CC1 [Compound B-1]						arrested primarily in the S phase with some G2 arrest as well	arrested in G1 and G2 phases of the cell cycle	arrested primarily in the S phase with some G2 arrest as well
